Test results as given in patent publication EP0540143B1, “Compounds and methods for inhibition of HIV and related viruses” (priority 1991, dated 1993).

What was measured:
HIV virus = assay: Test A (XTT), MT4 cells infected with HIV; format: cell-based; conditions: for inhibition at 1 µg/mL / inhibition at 10 µg/mL / inhibition at 100 µg/mL / inhibition at 0.1 µg/mL: Human immunodeficiency virus 1, MT4, Test A; for % inhibition: Test A
Protocol: (§1) Tests A, B, C, and D (XTT)
(§2) MT4 cells in a medium of RPMI 1640, 5% FCS, penicillin/streptomycin are adjusted to 2x10^5 cells/ml and seeded into microplates (96 wells/plate) 100 µl cell suspension/well giving 2x10^4 cells/well. The compound to be tested is made into a 10 mg/ml mixture in DMSO and stored at -20°C. The compound in DMSO is diluted with medium containing 10% DMSO in a 10-fold dilution series to give 1 mg/ml, 10 mg/ml, and […] solutions. Further dilutions to 400, 40, 4 and 0.4 mg/ml are made in medium containing microplates. Fifty µl of the 400, 40, and 4 mg/ml are transferred to the cell-containing microplates with a multi-channel pipette (final concentration: 100, 10, and 1 mg/ml). Finally, 50 µl of virus suspension is added to each well (with a repetitive "Eppendorf" multipipett). Each plate has at least six wells with the following: [Test A: HIV virus; Test B: HIV(II) virus; Test C: SIV virus; Test D: No virus]; with no drug (virus control) and six wells without virus (medium control). The plate is put into a plastic bag and incubated for six days in CO2 atmosphere. To each well in the plate is added 50 µl of XTT ((2,3-bis[2-methoxy-4-nitro-5-sulfophenyl]-5-[(phenylamino)carbonyl]-2H-tetrazolium hydroxide), (1 mg/ml 0.01-0.02 mM N-metyl-phenazonium methosulfate). After six hours of incubation in CO2 atmosphere the plates are covered with adhesive plate sealers and gently mixed on a vortex. Optical densities are determined at a wavelength of 450 nm and a reference wavelength of 650 nm. The percent reduction of cytotoxocity caused by the virus infection is calculated as follows: (OD450 compound - OD450 inf cells)/(OD450 uninf cells - OD450 inf cells)x 100 [formula]

recombinant HIV-RT = recombinant HIV-RT (Human immunodeficiency virus type 1 group M subtype B, UniProt P04585); assay: Test I (HIVRT (rAdt)), direct inhibition of recombinant HIV-RT; format: biochemical
Protocol: The compounds were tested for direct inhibitory activity on HIV-RT in a volume of […] recombinant HIV-RT (diluted in virus disruption buffer to give 200.000 cpm).
100 mM Tris-HCl pH 7.6, 100 mM KCl, 4 mM MgCl2, 4 mM DTT, 275 mg/ml BSA, 0.5 mg (rA)n(dT)12-18 and 0.3 mM ^3H- dTTP (specific activity […]). After 60 minutess of incubation 40 ml in duplicate were spotted on paper discs and washed in 5% TCA. After rinsing the paper discs in ethanol they were dried and counted in scintillation fluid.

SIV virus = assay: Test C (XTT), MT4 cells infected with SIV; format: cell-based; conditions: Simian immunodeficiency virus, MT4, Test C
Protocol: as §1, §2

Compound | inhibition at 1 µg/mL (HIV virus; 1 µg/ml) [%] | inhibition at 10 µg/mL (HIV virus; 10 µg/ml) [%] | inhibition at 100 µg/mL (HIV virus; 100 µg/ml) [%] | inhibition at 0.1 µg/mL (HIV virus) [%] | inhibition at 0.1 µg/mL (recombinant HIV-RT) [%] | inhibition at 1 µg/mL (recombinant HIV-RT) [%] | inhibition at 10 µg/mL (recombinant HIV-RT; 10 µg/ml) [%] | % inhibition (HIV virus; 1 µg/ml) [%] | % inhibition (HIV virus; 10 µg/ml) [%] | % inhibition (recombinant HIV-RT; 10 µg/ml) [%] | % inhibition (HIV virus; 100 µg/ml) [%] | inhibition at 1 µg/mL (SIV virus; 1 µg/ml) [%] | inhibition at 10 µg/mL (SIV virus; 10 µg/ml) [%] | inhibition at 100 µg/mL (SIV virus; 100 µg/ml) [%]
S=C(NCCc1ccccc1)Nc1cnc2ccccc2c1 | 0 | 71 | 0 |  |  |  |  |  |  |  |  |  |  | 
S=C(NCCc1ccccc1)N1CCOCC1 | 13 | 9 |  | 0 |  |  |  |  |  |  |  |  |  | 
Fc1cccc(Cl)c1CCNC(=S)Nc1nccs1 | 100 |  |  |  | 43 | 77 | 92 | 98 | 52 |  |  |  |  | 
S=C(NCCc1ccccc1)N1CCCc2ccccc21 | 0 | 0 |  |  |  |  |  |  |  |  |  |  |  | 
Fc1ccc(NC(=S)NCCc2ccccc2)cc1 | 5 | 41 | 0 | 0 |  |  |  |  | 32 |  |  |  |  | 
S=C(NCCc1ccccc1)Nc1ncccn1 | 0 | 23 | 22 |  | 5 | 12 | 6 |  |  |  |  |  |  | 
CCCCCCCCCCCCCCc1sc(NC(=S)NCCc2ccccc2)nc1-c1ccc(Cl)cc1 | 0 | 0 | 33 |  | 1 | 1 | 1 |  |  |  |  |  |  | 
S=C(NCCc1ccccc1)Nc1ccccc1Cl | 0 | 52 | 0 |  | 5 | 31 | 50 |  |  |  |  |  |  | 
NS(=O)(=O)c1ccc(NC(=S)NCCc2ccccc2)cc1 | 0 | 22 |  | 3 |  |  |  |  |  |  |  |  |  | 
S=C(NCCc1ccccc1)Nc1nc(-c2ccncc2)cs1 | 32 | 51 |  |  |  |  |  | 46 | 65 |  |  |  |  | 
S=C(NCCc1ccccc1)Nc1nc(-c2ccc(Cl)cc2)cs1 | 0 | 0 | 18 |  | 1 | 1 | 1 |  |  |  |  |  |  | 
COc1ccc(CCNC(=S)Nc2nccs2)cc1OC |  | 54 | 0 |  |  |  |  |  | 58 |  |  |  |  | 
S=C(NCCc1ccccc1)Nc1ccc(Cl)cc1 | 17 | 67 | 0 |  | 4 | 29 | 35 |  |  |  |  |  |  | 
COC(=O)C(=O)c1csc(NC(=S)NCCc2ccccc2)n1 | 0 | 0 | 0 |  | 1 | 1 | 13 |  |  |  |  |  |  | 
S=C(NCCc1ccccc1)Nc1cc[nH]n1 | 0 | 0 | 0 |  | 1 | 8 | 38 |  |  |  |  |  |  | 
CCc1nnc(NC(=S)NCCc2ccccc2)s1 | 0 | 7 | 17 |  | 12 |  | 11 |  |  | 17 |  |  |  | 
CC(C)(C)c1csc(NC(=S)NCCc2ccccc2)n1 | 0 | 9 | 0 | 0 | 8 | 8 | 15 |  |  |  |  |  |  | 
S=C(NCCc1ccccc1)N1CCCCC1 | 0 | 0 |  | 0 |  |  |  |  |  |  |  |  |  | 
S=C(NCCc1ccccc1)Nc1ncco1 | 0 | 0 |  | 0 |  |  |  |  |  |  |  |  |  | 
S=C(NCCc1ccccc1)Nc1nc(-c2ccc(Br)cc2)cs1 | 0 | 0 | 30 |  | 1 | 1 | 1 |  |  |  |  |  |  | 
S=C(NCCc1ccccc1)NCc1ccco1 | 10 | 7 |  | 3 | 7 | 12 | 10 |  |  |  |  |  |  | 
S=C(NCCc1ccccc1)Nc1ccccn1 | 0 | 2 | 6 |  |  |  |  |  |  |  |  |  |  | 
CCOc1ccc2nc(NC(=S)NCCc3ccccc3)sc2c1 | 0 | 5 | 33 |  | 1 | 5 | 8 |  |  |  |  |  |  | 
S=C(NCCc1ccc(Cl)cc1)Nc1nccs1 |  | 79 | 73 |  |  |  |  |  | 93 |  | 71 |  |  | 
Cc1cccc2sc(NC(=S)NCCc3ccccc3)nc12 | 8 | 28 | 50 |  | 12 | 12 | 24 |  |  |  |  |  |  | 
S=C(NCCc1ccccc1)Nc1cnccn1 | 4 | 100 | 100 |  | 1 | 27 | 36 |  |  |  |  | 2 | 20 | 100
CN1CCN(C(=S)NCCc2ccccc2)CC1 | 0 | 0 | 0 |  |  |  |  |  |  |  |  |  |  | 
S=C(NCCc1ccccc1)Nc1ccccc1 | 0 | 25 | 0 |  | 1 | 16 | 16 |  |  |  |  |  |  | 
Cc1nnc(NC(=S)NCCc2ccccc2)s1 | 3 | 38 | 20 |  | 1 | 21 | 18 |  |  |  |  |  |  | 
CCCCOC(=O)c1ccc(NC(=S)NCCc2ccccc2)cc1 | 0 | 0 |  | 0 |  |  |  |  |  |  |  |  |  | 
